These results are taken from patent US12053477B2, “Methods for treating pulmonary fibrosis” (Reviva Pharmaceuticals, Inc., priority 2017, dated 2024).

Data set [1] deals with Human Cortex or Human recombinant 5-HT2A (Homo sapiens (Human), UniProt P28223). In words: Serotonin 5HT2A radioligand binding assay.
A further data set has as its target Human recombinant 5-HT1A (Homo sapiens (Human), UniProt P08908). Nature of the data set: Serotonin 5HT1A radioligand binding assay.
The target in another data set is Human recombinant D2S (Homo sapiens (Human), UniProt P14416). Nature of the data set: Dopamine D2S radioligand binding assay.
Human recombinant D2S, sequence (P14416 other isoform, or with tags, fused parts or gaps): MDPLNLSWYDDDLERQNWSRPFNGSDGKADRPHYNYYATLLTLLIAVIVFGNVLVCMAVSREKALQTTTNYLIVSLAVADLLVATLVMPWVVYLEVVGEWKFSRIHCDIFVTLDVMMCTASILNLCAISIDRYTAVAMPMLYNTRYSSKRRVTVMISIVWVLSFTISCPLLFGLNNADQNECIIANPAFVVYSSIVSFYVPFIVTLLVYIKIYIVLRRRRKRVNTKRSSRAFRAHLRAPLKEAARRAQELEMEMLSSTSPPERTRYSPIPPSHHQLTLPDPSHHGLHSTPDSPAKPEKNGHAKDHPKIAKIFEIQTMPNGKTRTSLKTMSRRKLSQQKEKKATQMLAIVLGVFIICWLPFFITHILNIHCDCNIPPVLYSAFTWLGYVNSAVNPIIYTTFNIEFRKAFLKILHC
For data set [2], the system named is Bleomycin (BLM) induced pulmonary fibrosis. In words: Bleomycin (BLM) induced pulmonary fibrosis rat model. Format: in vivo, Sprague Dawley rats. The method, then: Study Animals: The investigation involved 34 male Sprague Dawley rats (weights: 275-300 g; ages: 8 weeks; Charles River Laboratories, Quebec, Canada) randomized for equal distribution according to their body weight into four groups.
Study Methods: On Day 0, animals in Group 1 (Sham; N=5) received one intratracheal administration of the vehicle, 0.250 mL of vehicle 0.9% saline solution (FIG. 1). Animals in Groups 2 to 4 (n=9, 10, 10, respectively) received a single intratracheal instillation of 0.250 mL (5 U/kg-3.33 mg/kg) of bleomycin sulfate (Cayman Chemicals, Ann Arbor, MI) solution. From Day 1 to 10, the vehicle was administered to Groups 1, 2, and 4. […] The vehicle administration was continued to Group 1 (Sham) and Group 2 (BLM) until Day 20. […] During the treatment period, food and water were provided ad libitum to the rats. On each day, animals were monitored for behavior, general health status, and survival. Body weight and food intake were also measured.
For bleomycin, 50 mg of drug was weighed and dissolved in 12.5 mL of sterile 0.9% Saline solution was added to obtain a solution of 4 mg/mL. The vehicle was created by dissolving 50 g of glucose in 1 L of water to result in a 5% solution.
On Day 21, animals were anesthetized and instrumented. Hemodynamic parameters (systemic arterial blood pressure, heart rate, and oxygen saturation) were recorded continuously for at least 5 minutes. At the end of the recording, a blood sample was collected. After the animal was exsanguinated, the pulmonary circulation was flushed with 0.9% NaCl, and tissues (lungs, trachea, and heart) were harvested altogether from the thoracic cavity for further analysis.
Parameters Measured on Surgery Day: Cardiac activity was recorded continuously during the surgical procedure. Cardiac activity was monitored using three electrocardiographic (ECG) contact electrodes placed in a lead-I/II configuration and connected to an IsoDam8 differential amplifier. Heart rate (HR) was recorded using duplicate systems: from the ECG records (RR-intervals) and using an N-595 pulse oximeter attached to the left front paw of the animal. The heart rate values derived from the pulse oximeter were measured in beat per minutes (bpm) using cursor readings in Clampfit 10.2.0.14CA. Blood oxygen saturation (SpO2) was measured using a pulse oximeter signal attached to the left front paw of the animal.
Systemic arterial blood pressure (SAP) was monitored continuously using an intra-arterial fluid-filled catheter connected to a pressure transducer, with diastolic and systolic pressures values measured in mm Hg. Calculation of mean SAP (mSAP) and pulse pressure (PP) used the following formulas: 1−mSAP=diastolic systemic pressure+([systolic systemic pressure−diastolic systemic pressure]/3); and 2−PP=systolic systemic pressure−diastolic systemic pressure. Pulse pressure was calculated as the difference between systolic and diastolic readings.
After being harvested, the trachea was connected to the cannula of a perfusion system. The left lung was clamped while 5 mL of cold PBS solution was injected in the trachea to perform bronchoalveolar lavage to obtain fluid (BALF) of the right lobe of the lungs and was collected for further analysis (Total cell counts and cytokines measurement). Once the BALF sample was collected, it was centrifuged at 1200 rpm for 10 minutes at 4° C. The supernatant was frozen at −80° C. until cytokines analysis. The cells were then resuspended in PBS and counted with a hemocytometer.
Organ weights were expressed as relative percentages and were calculated as follows: Relative organ weight=(organ weight×100)/body weight.
Histological Preparation and Categorization: For each rat, the left lobe of the lungs was harvested, perfused and fixed with 10% neutral buffered formalin. A transversal section of the middle left lobe was cut and forwarded in 10% NBF to the Institute for Research in Immunology and Cancer (Montreal, Quebec, Canada). […]

[3] abbreviates: RPI: Day 10 to 20, Day 21, vs BLM, P<0.01.
Where [4] appears, read: RPI: Day 10 to 20, Day 21, vs BLM, P<0.05.
Where [5] appears, read: RPT: Day 1 to 20, Day 21, vs BLM, P<0.001.
The mark [6] stands for this setting: RPT: Day 1 to 20, Day 21, vs BLM, P<0.01.
The mark [7] stands for this setting: RPT: Day 1 to 20, Day 21, vs BLM, P<0.05.
[8] abbreviates: all groups (RPT and RPI), Day 21.

Human Cortex or Human recombinant 5-HT2A, sequence (P28223 whole entry, looked up): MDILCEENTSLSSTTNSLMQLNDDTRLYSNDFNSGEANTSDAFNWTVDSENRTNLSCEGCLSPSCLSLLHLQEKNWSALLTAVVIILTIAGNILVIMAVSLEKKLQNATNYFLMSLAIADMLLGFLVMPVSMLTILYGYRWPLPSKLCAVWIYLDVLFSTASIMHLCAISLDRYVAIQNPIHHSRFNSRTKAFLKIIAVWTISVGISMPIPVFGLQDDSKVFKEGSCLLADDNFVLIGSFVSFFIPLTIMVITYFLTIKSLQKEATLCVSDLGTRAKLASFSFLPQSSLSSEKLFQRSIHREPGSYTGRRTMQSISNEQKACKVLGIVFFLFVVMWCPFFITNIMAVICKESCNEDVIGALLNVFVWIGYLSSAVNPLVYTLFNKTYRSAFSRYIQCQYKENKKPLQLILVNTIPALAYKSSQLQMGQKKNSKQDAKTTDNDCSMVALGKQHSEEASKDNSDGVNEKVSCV

As to “6-(4-(4-(2-methoxyphenyl)piperazin-1-yl)butoxy)-2H-benzo[b][1,4]oxazin-3(-4H)-one [Compound B]”, the Ki in data set [1] was determined as 118 nM; on Human recombinant 5-HT1A, 0.65 nM; on Human recombinant D2S, 0.3 nM.

Consider `O=C1COc2ccc(OCCCCN3CCN(c4cccc(Cl)c4Cl)CC3)cc2N1` [Compound A, 6-(4-(4-(2,3-dichlorophenyl)piperazin-1-yl)butoxy)-2H-benzo[b][1,4]oxazin-3(4H)-one], for which the “survival rate at Day 10” value in data set [2] (Group 3, 15 mg/kg b.i.d. gavage from Day 1 (text calls it RPI; Group 3 = RPT)) came out at 100%. Further, the “survival rate at Day 21” value in data set [2] (RPI: 15 mg/kg b.i.d. gavage Day 10 to 20) was 89.5%. In data set [2] (RPI: Day 10 to 20, Day 21), the “BALF IL6” value is reported as “numerically (RPT, RPI) reduced”; the “BALF MIP1” value is recorded as “None of the treatments statistically reversed”; the BALF total protein result is on record as “numerical improvement reduction”; the arterial pulse pressure result is on record as “slightly restored”. Besides, in data set [2] (RPI: Day 10 to 20, Day 21), the blood oxygen saturation entry is on record as “improved”, the cardiac output entry is listed as “slightly restored” and the lung weight entry is on record as “decreased”. Further, in data set [2] (setting [3]), the “BALF IP10” value is listed as “significant reductions”, the “BALF RANTES” value was “significantly reduced” and the lung hydroxyproline concentration entry is listed as “significant diminution”. In data set [2] (setting [4]), the “BALF MCP1” value is “significant decrease”, the “BALF total cell count” value is reported as “significantly reduced” and the blood lactate levels entry is recorded as “diminution”. The respiratory resistance result in data set [2] (RPI: Day 10 to 20, Day 21, vs BLM, P=0.10) is on record as “showed improvement”. The “survival rate at Day 21” value in data set [2] (RPT: 15 mg/kg b.i.d. gavage Day 1 to 20) is reported as 90%. For the same compound, in data set [2] (RPT: Day 1 to 20, Day 21), the “BALF IL6” value is reported as “numerically (RPT, RPI) reduced”; the “BALF MCP1” value is given as “reductions”; the “BALF MIP1” value is given as “slightly reduced”. In addition, in data set [2] (setting [5]), the “Ashcroft Score (H&E staining), lung parenchymal fibrotic changes” value was “significant reduction” and the “percentage of collagen disposition in the lung (Masson's trichrome staining)” value is listed as “significantly reduced”. Further, in data set [2] (setting [6]), the “BALF IP10” value is “significant reductions”, the “BALF RANTES” value is on record as “significantly reduced”, the blood lactate levels entry is given as “diminution” and the body weight result is listed as “significantly alleviated BLM-induced weight loss”. Also, the cardiac output result in data set [2] (setting [6]) is “restored cardiac output”. In addition, in data set [2] (setting [7]), the “BALF total cell count” value is reported as “reversal”, the BALF total protein entry is “reversal”, the arterial pulse pressure result is listed as “improved arterial pulse pressure” and the blood oxygen saturation entry is “normalization”. Besides, in data set [2] (setting [7]), the lung hydroxyproline concentration entry is “significant diminution”, the lung weight entry is “significantly lower” and the respiratory resistance entry is “significant reduction”. The body weight entry in data set [2] (administered from Day 10 (RPI; printed RPT), Day 21, vs BLM) was “slightly increased body weight”. In data set [2] (setting [8]), the heart rate entry is “relatively similar in all groups” and the systemic arterial pressure entry is on record as “no differences were noted among the groups”.

In general, Ki refers to the equilibrium dissociation constant of an inhibitor or competing ligand from its target.
